# Measured values as given in article PMC7307930, “Stereoselective Activity of 1-Propargyl-4-styrylpiperidine-like Analogues That Can Discriminate between Monoamine Oxidase Isoforms A and B” (Journal of Medicinal Chemistry, 2020).
# Assays:
# SH-SY5Y cells [1] = test: LDH release, 6-OHDA-induced toxicity; details: 100 μM 6-OHDA, 24 h
# MAO-B [2] = target: T1, MAO-B (Mus musculus, UniProt Q8BW75); test: In vitro MAO inhibition in mouse brain homogenate, benzylamine substrate; type: biochemical; details: substrate of MAO B, control mouse brain homogenates
# T1 construct: Brain homogenates from male Swiss mice were first characterized in terms of their MAOs activity; from tissue; host or cells: whole brain homogenate of male Swiss mice
# T1 sequence (Q8BW75 1-520): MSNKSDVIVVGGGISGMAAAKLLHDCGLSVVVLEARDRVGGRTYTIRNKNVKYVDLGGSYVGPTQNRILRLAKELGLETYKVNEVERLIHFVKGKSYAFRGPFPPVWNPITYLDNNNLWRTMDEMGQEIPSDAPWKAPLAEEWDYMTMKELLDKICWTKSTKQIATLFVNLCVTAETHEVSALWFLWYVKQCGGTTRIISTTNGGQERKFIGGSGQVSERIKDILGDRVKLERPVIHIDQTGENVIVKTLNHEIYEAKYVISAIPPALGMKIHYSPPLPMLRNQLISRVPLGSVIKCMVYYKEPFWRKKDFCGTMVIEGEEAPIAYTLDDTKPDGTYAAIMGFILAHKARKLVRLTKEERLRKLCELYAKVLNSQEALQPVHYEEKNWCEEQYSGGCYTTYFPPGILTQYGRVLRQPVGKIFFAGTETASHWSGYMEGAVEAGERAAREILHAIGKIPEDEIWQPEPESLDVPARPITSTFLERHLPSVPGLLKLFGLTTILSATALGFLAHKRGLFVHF
# Swiss mice [3] = test: Body mass and survival during 10-day treatment; type: in vivo; details: 0.3 mg/kg ip daily
# Experimental: Figure S9. In vivo effects of chronic treatment on body mass. Body mass variation (Percent weight) (mean ±SEM) in mice throughout the 10-day i.p. treatment with 69 (0.3 mg/kg; n = 10), 100 (0.3 mg/kg; n = 8) and saline (SAL; n = 16). Data are means ±SEM. All animals survived the treatments.
# Swiss mice [4] = test: Hole–board test
# MAO-A/B = test: In vitro MAO inhibition in mouse brain homogenate, p-tyramine substrate; type: biochemical; details: 50 μM compound, homogenate from nontreated mice
# Swiss mice [5] = test: Haloperidol-induced catalepsy test; type: in vivo, mouse
# Swiss mice [6] = test: Locomotor activity test; type: in vivo, mouse
# 5-HT1A receptor = target: T2, 5-HT1A receptor (Rattus norvegicus, UniProt P19327); test: [3H]-8-OH-DPAT radioligand binding assay, rat cortex membranes; details: [3H]-8-OH-DPAT binding, means ±SEM
# T2 construct: from tissue; host or cells: rat (male Wistar) brain cortex membranes
# T2 sequence (P19327 1-422): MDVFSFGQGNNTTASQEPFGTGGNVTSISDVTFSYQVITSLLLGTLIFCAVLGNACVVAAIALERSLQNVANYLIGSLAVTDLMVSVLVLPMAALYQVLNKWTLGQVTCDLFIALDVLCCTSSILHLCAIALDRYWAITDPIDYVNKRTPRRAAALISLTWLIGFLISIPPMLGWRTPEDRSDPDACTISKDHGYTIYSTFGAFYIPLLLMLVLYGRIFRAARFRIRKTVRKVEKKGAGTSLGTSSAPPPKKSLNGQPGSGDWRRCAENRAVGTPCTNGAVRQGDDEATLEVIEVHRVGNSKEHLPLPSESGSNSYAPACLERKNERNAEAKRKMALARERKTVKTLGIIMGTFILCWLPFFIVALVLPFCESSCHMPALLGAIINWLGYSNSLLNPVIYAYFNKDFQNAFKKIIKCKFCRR
# [7] = Chemical stability and photoisomerization by proton NMR in D2O; type: physicochemical; details: hydrochloride salts, more than 1 year at room temperature protected from sunlight, 1H NMR in D2O
# Experimental: Possible chemical instability and photoisomerization of E/Z isomers were also addressed as these are known liabilities of stilbene derivatives.[23] Proton NMRs of 69 (cis derivative), 84 (trans derivative), and 100 (ethyl analogue) in the form of hydrochloride salts were recorded in D2O (Figures S1–S3). […] The samples dissolved in the NMR tubes were then left on the benchtop exposed to natural daylight for 7 days, which could induce photoisomerization. […] Altogether, these studies imply reasonable stability of the compounds.
# Figure S2. […] Compound 84 (trans isomer, […]
# hydrochloride salt) was dissolved in D2O and the spectra were recorded at time 0 h, 1 h, 24 h and 7 days. Sample was exposed to day light in between the measurement, which could induce photoisomerization and potentially also chemical degradation.
# The sample was previously stored at […]
# SH-SY5Y cells [8] = test: MTS cytotoxicity assay; details: 24 h, 5 μM and 10 μM
# hMAO-A = target: T3, hMAO-A (Homo sapiens, UniProt P21397); test: hMAO-A inhibition, HRP–Amplex Red coupled fluorimetric assay; type: biochemical; details: supplement csv; RA at 100 micromolar
# T3 construct: purchased Sigma Aldrich; host or cells: baculovirus-infected insect cells (BTI-TN-5B1-4)
# T3 sequence (P21397 1-527): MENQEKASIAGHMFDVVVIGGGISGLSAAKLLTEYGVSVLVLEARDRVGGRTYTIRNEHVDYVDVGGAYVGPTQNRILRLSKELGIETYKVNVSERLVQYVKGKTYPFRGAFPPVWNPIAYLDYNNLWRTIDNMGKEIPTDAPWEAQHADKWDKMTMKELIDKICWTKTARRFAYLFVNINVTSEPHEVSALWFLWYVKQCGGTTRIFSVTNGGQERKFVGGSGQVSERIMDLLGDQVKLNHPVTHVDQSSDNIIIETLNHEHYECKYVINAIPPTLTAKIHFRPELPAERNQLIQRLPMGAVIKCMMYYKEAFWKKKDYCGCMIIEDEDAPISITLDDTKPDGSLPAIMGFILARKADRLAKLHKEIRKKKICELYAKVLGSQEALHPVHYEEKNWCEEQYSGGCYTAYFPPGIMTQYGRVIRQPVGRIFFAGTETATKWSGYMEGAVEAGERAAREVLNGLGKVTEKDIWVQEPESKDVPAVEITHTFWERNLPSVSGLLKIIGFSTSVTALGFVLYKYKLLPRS
# [9] = Thermodynamic solubility in PBS; type: physicochemical; details: PBS (pH 7.4), 37 °C, 24 h, hydrochloride salts
# MAO-B [10] = target: T1, MAO-B; test: Ex vivo MAO inhibition in brain homogenates of treated mice, benzylamine substrate; details: 10 days 0.3 mg/kg ip, with or without haloperidol, two-way ANOVA
smiles,measurement,setting,value
"NCCc1cc(O)c(O)cc1O [6-OHDA, 6-hydroxydopamine]",LDH release vs control,SH-SY5Y cells [1],135%
NCc1ccccc1 [Benzylamine],K0.5,MAO-B [2],0.268 ± 0.017 mM
"C#CCN1CCC(CCc2ccc(C(F)(F)F)cc2)CC1 [Compound 100, 1-(Prop-2-yn-1-yl)-4-(4-(trifluoromethyl)phenethyl)piperidine]",body mass variations versus control mice,Swiss mice [3],No significant differences
same,parameters of the hole–board test,"Swiss mice [4]; 10 days, 0.3 mg/kg ip daily",did not affect
same,hole–board test parameters,Swiss mice [4]; acute ip doses of ≥10 mg/kg,reduced
same,"residual activity, p-tyramine (0.5 mM), in vitro",MAO-A/B,59.4 ± 0.2%
same,latency time to descent from the bar,Swiss mice [5]; 10-day i.p. 0.3 mg/kg daily,increased significantly
same,reversal of haloperidol-induced catalepsy,Swiss mice [5]; acute i.p. 3 mg/kg,did not reverse the catalepsy
same,locomotor activity,"Swiss mice [6]; 10 days, 0.3 mg/kg ip daily",did not affect
same,locomotor activities,Swiss mice [6]; acute ip doses of ≥10 mg/kg,reduced
same,Ki,5-HT1A receptor,25.9 ± 1.5 µM
same,chemical stability on storage,[7],no signs of chemical instability
same,cytotoxic effects,SH-SY5Y cells [8],no significant cytotoxic effects
same,IC50(MAO-A) class,hMAO-A,na (na-not_active(RA_at_100micromolar>50%))
same,thermodynamic solubility,[9],≥ 16.3 g/250 mL
same,ex vivo MAO-B activity after haloperidol-induced catalepsy test,MAO-B [10],decreased MAO-B activity
